Laboratory results as given in ChEMBL document CHEMBL3046216, “Synthesis, biological evaluation and QSAR study of a series of substituted quinazolines as antimicrobial agents” (2013).
Values after ≈ are worked out from the molar mass of the structure shown. Active and inactive are the calls of the source. The calls are words filed in the database; no cut-off is given here.

Key:
Format in all cases: functional
Bacillus subtilis = test: Antimicrobial activity against Bacillus subtilis ATCC 6633 assessed as growth inhibition after 24 hr by NCCLS broth dilution method
Staphylococcus aureus = test: Antimicrobial activity against Staphylococcus aureus ATCC 25923 assessed as growth inhibition after 24 hr by NCCLS broth dilution method
Escherichia coli = test: Antimicrobial activity against Escherichia coli ATCC 25922 assessed as growth inhibition after 24 hr by NCCLS broth dilution method
Pseudomonas aeruginosa = test: Antimicrobial activity against Pseudomonas aeruginosa ATCC 27853 assessed as growth inhibition after 24 hr by NCCLS broth dilution method

Structure (SMILES) | MIC (Bacillus subtilis) | MIC (Bacillus subtilis; ATCC 6633, 24 h) [µg/mL] | MIC (Staphylococcus aureus) | MIC (Staphylococcus aureus; ATCC 25923, 24 h) [µg/mL] | MIC (Escherichia coli) | MIC (Escherichia coli; ATCC 25922, 24 h) [µg/mL] | MIC (Pseudomonas aeruginosa) | MIC (Pseudomonas aeruginosa; ATCC 27853, 24 h) [µg/mL]
Cc1cccc(NC(=O)Nc2ccc3ncnc(Sc4nnc(-c5cccnc5)o4)c3c2)c1 | inactive | 25 (≈ 54.9 µM) | inactive | 25 (≈ 54.9 µM) | inactive | 12.5 (≈ 27.4 µM) | inactive | 50 (≈ 110 µM)
S=C(Nc1ccc(Cl)cc1)Nc1ccc2ncnc(Sc3nnc(-c4cccnc4)o3)c2c1 | inactive | 12.5 (≈ 25.4 µM) | inactive | 25 (≈ 50.8 µM) | inactive | 25 (≈ 50.8 µM) | inactive | 100 (≈ 203 µM)
O=C(Nc1ccc(-c2ccccc2)cc1)Nc1ccc2ncnc(Sc3nnc(-c4cccnc4)o3)c2c1 | inactive | 12.5 (≈ 24.2 µM) | inactive | 12.5 (≈ 24.2 µM) | inactive | 100 (≈ 193 µM) | inactive | 75 (≈ 145 µM)
CN1CCN(c2cc3ncnc(Sc4nnc(-c5cccnc5)o4)c3cc2NC(=O)NCCc2ccccc2)CC1 | inactive | 25 (≈ 44 µM) | inactive | 6.25 (≈ 11 µM) | inactive | 12.5 (≈ 22 µM) | inactive | 50 (≈ 88.1 µM)
CN[C@@H]1[C@H](O[C@H]2[C@H](O[C@H]3[C@H](O)[C@@H](O)[C@H](N=C(N)N)[C@@H](O)[C@@H]3N=C(N)N)O[C@@H](C)[C@]2(O)C=O)O[C@@H](CO)[C@H](O)[C@H]1O [STREPTOMYCIN] | inactive | 6.25 (≈ 10.7 µM) | inactive | 6.25 (≈ 10.7 µM) | inactive | 3.12 (≈ 5.37 µM) | inactive | 3.12 (≈ 5.37 µM)
CN1CCN(c2cc3ncnc(Sc4nnc(-c5cccnc5)o4)c3cc2NC(=S)Nc2ccc(Cl)cc2)CC1 | inactive | 12.5 (≈ 21.2 µM) | inactive | 25 (≈ 42.4 µM) | inactive | 50 (≈ 84.7 µM) | inactive | 50 (≈ 84.7 µM)
CN1CCN(c2cc3ncnc(Sc4nnc(-c5cccnc5)o4)c3cc2NC(=S)Nc2ccccc2Cl)CC1 | inactive | 6.25 (≈ 10.6 µM) | inactive | 25 (≈ 42.4 µM) | inactive | 25 (≈ 42.4 µM) | inactive | 12.5 (≈ 21.2 µM)
Cc1ccc(NC(=S)Nc2ccc3ncnc(Sc4nnc(-c5cccnc5)o4)c3c2)cc1 | inactive | 25 (≈ 53 µM) | inactive | 25 (≈ 53 µM) | inactive | 50 (≈ 106 µM) | inactive | 75 (≈ 159 µM)
CN1CCN(c2cc3ncnc(Sc4nnc(-c5cccnc5)o4)c3cc2NC(=O)NC2CCCCC2)CC1 | inactive | 12.5 (≈ 22.9 µM) | inactive | 50 (≈ 91.6 µM) | inactive | 25 (≈ 45.8 µM) | inactive | 50 (≈ 91.6 µM)
CC1COc2c(N3CCN(C)CC3)c(F)cc3c(=O)c(C(=O)O)cn1c23 (configuration not stated) [OFLOXACIN] | inactive | 0.125 (≈ 0.346 µM) | inactive | 0.25 (≈ 0.692 µM) | inactive | 0.125 (≈ 0.346 µM) | inactive | 10 (≈ 27.7 µM)
O=C(Nc1ccccc1)Nc1ccc2ncnc(Sc3nnc(-c4cccnc4)o3)c2c1 | inactive | 25 (≈ 56.6 µM) | inactive | 12.5 (≈ 28.3 µM) | inactive | 25 (≈ 56.6 µM) | inactive | 50 (≈ 113 µM)
COc1ccccc1NC(=S)Nc1ccc2ncnc(Sc3nnc(-c4cccnc4)o3)c2c1 | inactive | 25 (≈ 51.3 µM) | inactive | 12.5 (≈ 25.6 µM) | inactive | 25 (≈ 51.3 µM) | inactive | 50 (≈ 103 µM)
O=C(Nc1ccc(Cl)cc1)Nc1ccc2ncnc(Sc3nnc(-c4cccnc4)o3)c2c1 | inactive | 12.5 (≈ 26.3 µM) | inactive | 6.25 (≈ 13.1 µM) | inactive | 75 (≈ 158 µM) | inactive | 25 (≈ 52.5 µM)
S=C(Nc1cccc(Cl)c1)Nc1ccc2ncnc(Sc3nnc(-c4cccnc4)o3)c2c1 | inactive | 25 (≈ 50.8 µM) | inactive | 6.25 (≈ 12.7 µM) | inactive | 50 (≈ 102 µM) | inactive | 75 (≈ 152 µM)
CN1CCN(c2cc3ncnc(Sc4nnc(-c5cccnc5)o4)c3cc2NC(=O)Nc2cccc(Cl)c2)CC1 | inactive | 12.5 (≈ 21.8 µM) | inactive | 6.25 (≈ 10.9 µM) | inactive | 50 (≈ 87.1 µM) | inactive | 25 (≈ 43.5 µM)
O=C(Nc1ccc2ncnc(Sc3nnc(-c4cccnc4)o3)c2c1)NC1CCCCC1 | inactive | 50 (≈ 112 µM) | inactive | 25 (≈ 55.9 µM) | inactive | 50 (≈ 112 µM) | inactive | 100 (≈ 223 µM)

Structure (SMILES) | MIC (Bacillus subtilis) | MIC (Bacillus subtilis; ATCC 6633, 24 h) [µg/mL] | MIC (Staphylococcus aureus) | MIC (Staphylococcus aureus; ATCC 25923, 24 h) [µg/mL] | MIC (Escherichia coli) | MIC (Escherichia coli; ATCC 25922, 24 h) [µg/mL] | MIC (Pseudomonas aeruginosa) | MIC (Pseudomonas aeruginosa; ATCC 27853, 24 h) [µg/mL]
Cc1cccc(NC(=S)Nc2ccc3ncnc(Sc4nnc(-c5cccnc5)o4)c3c2)c1 | inactive | 75 (≈ 159 µM) | inactive | 75 (≈ 159 µM) | inactive | 50 (≈ 106 µM) | inactive | 100 (≈ 212 µM)
COc1ccccc1NC(=S)Nc1cc2c(Sc3nnc(-c4cccnc4)o3)ncnc2cc1N1CCN(C)CC1 | inactive | 25 (≈ 42.7 µM) | inactive | 12.5 (≈ 21.3 µM) | inactive | 25 (≈ 42.7 µM) | inactive | 50 (≈ 85.4 µM)
S=C(Nc1ccccc1)Nc1ccc2ncnc(Sc3nnc(-c4cccnc4)o3)c2c1 | inactive | 75 (≈ 164 µM) | inactive | 50 (≈ 109 µM) | inactive | 50 (≈ 109 µM) | inactive | 100 (≈ 219 µM)
S=C(Nc1ccc2ncnc(Sc3nnc(-c4cccnc4)o3)c2c1)Nc1ccccc1Cl | inactive | 50 (≈ 102 µM) | inactive | 25 (≈ 50.8 µM) | inactive | 25 (≈ 50.8 µM) | inactive | 50 (≈ 102 µM)
Cc1ccccc1NC(=O)Nc1ccc2ncnc(Sc3nnc(-c4cccnc4)o3)c2c1 | inactive | 50 (≈ 110 µM) | inactive | 25 (≈ 54.9 µM) | inactive | 25 (≈ 54.9 µM) | inactive | 75 (≈ 165 µM)
Cc1ccccc1NC(=S)Nc1ccc2ncnc(Sc3nnc(-c4cccnc4)o3)c2c1 | inactive | 50 (≈ 106 µM) | inactive | 75 (≈ 159 µM) | inactive | 25 (≈ 53 µM) | inactive | 100 (≈ 212 µM)
Cc1cccc(NC(=O)Nc2cc3c(Sc4nnc(-c5cccnc5)o4)ncnc3cc2N2CCN(C)CC2)c1 | inactive | 25 (≈ 45.2 µM) | inactive | 50 (≈ 90.3 µM) | inactive | 25 (≈ 45.2 µM) | inactive | 50 (≈ 90.3 µM)
Fc1ccc(NC(=S)Nc2ccc3ncnc(Sc4nnc(-c5cccnc5)o4)c3c2)cc1 | inactive | 6.25 (≈ 13.1 µM) | inactive | 6.25 (≈ 13.1 µM) | inactive | 12.5 (≈ 26.3 µM) | inactive | 50 (≈ 105 µM)
CN1CCN(c2cc3ncnc(Sc4nnc(-c5cccnc5)o4)c3cc2NC(=S)NC2CCCCC2)CC1 | inactive | 75 (≈ 134 µM) | inactive | 100 (≈ 178 µM) | inactive | 25 (≈ 44.5 µM) | inactive | 50 (≈ 89 µM)
Cc1ccc(NC(=O)Nc2cc3c(Sc4nnc(-c5cccnc5)o4)ncnc3cc2N2CCN(C)CC2)cc1 | inactive | 12.5 (≈ 22.6 µM) | inactive | 25 (≈ 45.2 µM) | inactive | 50 (≈ 90.3 µM) | inactive | 50 (≈ 90.3 µM)
CN1CCN(c2cc3ncnc(Sc4nnc(-c5cccnc5)o4)c3cc2NC(=O)Nc2ccccc2Cl)CC1 | inactive | 50 (≈ 87.1 µM) | inactive | 25 (≈ 43.5 µM) | inactive | 50 (≈ 87.1 µM) | inactive | 100 (≈ 174 µM)
CN1CCN(c2cc3ncnc(Sc4nnc(-c5cccnc5)o4)c3cc2NC(=S)Nc2ccccc2)CC1 | inactive | 25 (≈ 45 µM) | inactive | 50 (≈ 90 µM) | inactive | 25 (≈ 45 µM) | inactive | 50 (≈ 90 µM)
Cc1cccc(NC(=S)Nc2cc3c(Sc4nnc(-c5cccnc5)o4)ncnc3cc2N2CCN(C)CC2)c1 | inactive | 25 (≈ 43.9 µM) | inactive | 50 (≈ 87.8 µM) | inactive | 25 (≈ 43.9 µM) | inactive | 100 (≈ 176 µM)
CC1(C)S[C@@H]2[C@H](NC(=O)[C@H](N)c3ccccc3)C(=O)N2[C@H]1C(=O)O.O.O.O [AMPICILLIN TRIHYDRATE] | inactive | 0.25 | inactive | 0.05 | inactive | 10 | inactive | –
O=C(Nc1ccc2ncnc(Sc3nnc(-c4cccnc4)o3)c2c1)Nc1ccccc1Cl | inactive | 12.5 (≈ 26.3 µM) | inactive | 25 (≈ 52.5 µM) | inactive | 25 (≈ 52.5 µM) | inactive | 75 (≈ 158 µM)
